{"source": "paper PMC10272112", "about": "(Nature Communications, 2023)", "key": {"TwinStrep-GST-HDAC10": {"biological_target": "T1, TwinStrep-GST-HDAC10 (Homo sapiens, UniProt Q969S8)", "T1 sequence (Q969S8 1-669)": "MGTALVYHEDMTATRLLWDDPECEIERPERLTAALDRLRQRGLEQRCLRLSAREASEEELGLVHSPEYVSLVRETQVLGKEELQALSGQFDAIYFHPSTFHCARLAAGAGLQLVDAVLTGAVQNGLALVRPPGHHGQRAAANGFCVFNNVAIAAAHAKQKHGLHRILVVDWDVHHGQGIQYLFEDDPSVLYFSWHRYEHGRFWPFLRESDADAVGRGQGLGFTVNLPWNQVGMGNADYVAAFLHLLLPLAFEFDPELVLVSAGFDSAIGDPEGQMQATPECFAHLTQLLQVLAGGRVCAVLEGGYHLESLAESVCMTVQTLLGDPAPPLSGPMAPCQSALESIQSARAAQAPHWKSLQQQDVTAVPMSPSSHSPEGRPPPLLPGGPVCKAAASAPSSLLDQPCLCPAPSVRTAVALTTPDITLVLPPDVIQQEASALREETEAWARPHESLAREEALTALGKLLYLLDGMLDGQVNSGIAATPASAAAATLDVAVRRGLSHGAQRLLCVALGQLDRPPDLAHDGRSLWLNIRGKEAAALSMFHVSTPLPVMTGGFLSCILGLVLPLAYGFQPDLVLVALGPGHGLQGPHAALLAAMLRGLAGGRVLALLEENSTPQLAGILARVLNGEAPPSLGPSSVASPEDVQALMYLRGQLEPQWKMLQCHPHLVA", "assay": "HDAC10 TR-FRET assay", "type": "binding", "settings": "sheet S2e", "method": "(§1) To validate the inhibition of HDACs by LA and LM and elaborate on the structure-activity relationship (SAR) of enantiomers as well as oxidized versus reduced forms of the molecules, we performed enzyme activity assays for recombinant HDAC1,2,3,6,8 as well as FRET-based binding assay for recombinant HDAC10.\nInhibitors with a D300e Digital Dispenser (Tecan). After drug dosing to the premixed assay reagents in buffer, plates were shaken (800 rpm orbital shaker, 30 s), centrifuged (300g, 1 min), and incubated at RT in the dark for 90 min. TR-FRET was measured with a CLARIOstar (BMG Labtech) plate reader, equipped with TR-FRET filters."}, "HDAC1": {"biological_target": "HDAC1 (Homo sapiens, UniProt Q13547)", "sequence (Q13547 whole entry)": "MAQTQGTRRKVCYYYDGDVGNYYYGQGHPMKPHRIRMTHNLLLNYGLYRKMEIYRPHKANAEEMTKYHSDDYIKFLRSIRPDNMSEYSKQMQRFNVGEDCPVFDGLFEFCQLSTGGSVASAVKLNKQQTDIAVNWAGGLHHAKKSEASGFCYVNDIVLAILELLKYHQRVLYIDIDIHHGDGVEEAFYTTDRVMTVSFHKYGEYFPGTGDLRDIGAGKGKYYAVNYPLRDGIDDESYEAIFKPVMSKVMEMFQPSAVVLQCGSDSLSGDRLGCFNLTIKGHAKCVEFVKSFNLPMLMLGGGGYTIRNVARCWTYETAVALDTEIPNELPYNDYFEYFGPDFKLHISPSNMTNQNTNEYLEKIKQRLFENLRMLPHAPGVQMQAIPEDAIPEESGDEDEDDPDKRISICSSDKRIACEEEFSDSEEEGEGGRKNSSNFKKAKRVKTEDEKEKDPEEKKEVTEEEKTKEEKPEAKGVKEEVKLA", "assay": "HDAC-Glo assay", "type": "biochemical", "parameters": "purchased BPS Bioscience 50051", "settings": "0.5 M TCEP, listed as SAHA", "method": "as §1\nThe experiments were performed according to ref. [48]. […] Drug dosing was performed with a D300e Digital Dispenser (Tecan). HDACs (7 ng/mL for HDAC1, 25 ng/mL for HDAC2, 200 ng/mL for HDAC3/Ncor2 complex, 100 ng/mL for HDAC6, 200 ng/mL for HDAC8) and inhibitors were incubated together at room temperature (RT) for 30 min. After the addition of the HDAC-Glo™ I/II reagent, plates were shaken (800 rpm orbital shaker, 30 s), centrifuged (300 g, 1 min), and incubated at RT for 30 min. Luminescence was detected with a CLARIOstar (BMG Labtech) plate reader."}, "A549 cells": {"test_system": "A549 cells", "assay": "Arsenite-induced stress granule formation (G3BP1 immunofluorescence)", "type": "cell-based", "settings": "for arsenite-induced stress granule quantification (G3BP1), Mean / arsenite-induced stress granule quantification (G3BP1), Median / arsenite-induced stress granule quantification (G3BP1), individual values: sheet 4b; for arsenite-induced stress granule quantification (G3BP1), individual values: single data points", "method": "The acetylation status of proteins can affect their macromolecular associations and the tendency of proteins to phase-separate into liquid condensates such as stress granules. […] After pre-incubation of cells with the compound, stress granule formation was induced using 30 min of arsenite treatment (1 mM). After treatment, cells were fixed for immunofluorescence detection of stress granules via the common stress granule marker protein G3BP1[21].\n0.03 × 10^6 A549 cells were seeded at 4-chamber slides (Thermo, Nunc) and cultured at 37 °C overnight. Cells were treated with HDAC inhibitor SAHA and Lipoic acid or LM for 6 h, followed by 1 mM Arsenite for 30 min. Cells were fixed by 4% PFA and permeabilized by 0.5% Triton X-100/PBS. 10% Goat serum in PBS was used for blocking. After manually selecting an area with cell confluency of 50–80%, 16 pictures were taken randomly around the central point (ZEISS software in-built function). Stress granule marker G3BP1 (Aviva Systems Biology, ARP37713_T100) was visualized and quantified by ImageJ. Statistical analysis was performed with GraphPad Prism."}}, "note": "Several values for one entry are separate records, joined by “and”; a condition that tells them apart may be missing. Equal entries are not always repeated."}
{"smiles": "O=C(O)CCCCC1CCSS1", "note": "(centres unmarked) [R/S Lipoic Acid]", "values": [{"measurement": "HDAC10 TR-FRET relative signal", "setting": "TwinStrep-GST-HDAC10; log conc -4.58031", "result": "16.6621 and 17.5526 and 13.058"}, {"measurement": "HDAC10 TR-FRET relative signal", "setting": "TwinStrep-GST-HDAC10; log conc -5.16059", "result": "24.6813 and 29.9295 and 28.3509"}, {"measurement": "HDAC10 TR-FRET relative signal", "setting": "TwinStrep-GST-HDAC10; log conc -5.74088", "result": "52.1664 and 54.0588 and 51.0514"}, {"measurement": "HDAC10 TR-FRET relative signal", "setting": "TwinStrep-GST-HDAC10; log conc -6.32148", "result": "88.5435 and 84.6455 and 96.7603"}, {"measurement": "HDAC10 TR-FRET relative signal", "setting": "TwinStrep-GST-HDAC10; log conc -6.92082", "result": "91.5597 and 91.2649 and 101.82"}, {"measurement": "HDAC10 TR-FRET relative signal", "setting": "TwinStrep-GST-HDAC10; log conc -7.57349", "result": "99.4261 and 99.6664 and 105.18"}, {"measurement": "HDAC10 TR-FRET relative signal", "setting": "TwinStrep-GST-HDAC10; log conc -8.06198", "result": "106.58 and 110.725 and 95.693"}]}
{"smiles": "NC(=O)CCCCC1CCSS1", "note": "(centres unmarked) [R/S Lipoic Amide]", "values": [{"measurement": "HDAC10 TR-FRET relative signal", "setting": "TwinStrep-GST-HDAC10; log conc -4", "result": "8.95 and 4.904 and 5.819"}, {"measurement": "HDAC10 TR-FRET relative signal", "setting": "TwinStrep-GST-HDAC10; log conc -6.32148", "result": "8.47 and 4.461 and 8.704"}, {"measurement": "HDAC10 TR-FRET relative signal", "setting": "TwinStrep-GST-HDAC10; log conc -7.57349", "result": "45.0477 and 41.2172 and 50.7784"}, {"measurement": "HDAC10 TR-FRET relative signal", "setting": "TwinStrep-GST-HDAC10; log conc -8.06198", "result": "82.499 and 87.6271 and 84.2057"}]}
{"smiles": "O=C(CCCCCCC(=O)Nc1ccccc1)NO", "note": "[Vorinostat]", "values": [{"measurement": "raw luminescence signal, HDAC1 inhibition", "setting": "HDAC1; log10 M -4.30103, 3 technical replicates", "result": "1951 and 1963 and 1822"}, {"measurement": "raw luminescence signal, HDAC1 inhibition", "setting": "HDAC1; log10 M -5.12407, 3 technical replicates", "result": "3958 and 4231 and 3895"}, {"measurement": "raw luminescence signal, HDAC1 inhibition", "setting": "HDAC1; log10 M -5.94692, 3 technical replicates", "result": "19908 and 20969 and 19762"}, {"measurement": "raw luminescence signal, HDAC1 inhibition", "setting": "HDAC1; log10 M -6.76955, 3 technical replicates", "result": "88503 and 91916 and 93868"}, {"measurement": "raw luminescence signal, HDAC1 inhibition", "setting": "HDAC1; log10 M -7.59346, 3 technical replicates", "result": "248915 and 245579 and 256063"}, {"measurement": "raw luminescence signal, HDAC1 inhibition", "setting": "HDAC1; log10 M -8.41567, 3 technical replicates", "result": "337631 and 344047 and 344507"}, {"measurement": "raw luminescence signal, HDAC1 inhibition", "setting": "HDAC1; log10 M -9.27327, 3 technical replicates", "result": "375556 and 372678 and 377396"}, {"measurement": "raw luminescence signal, HDAC1 inhibition", "setting": "HDAC1; log10 M -10.062, 3 technical replicates", "result": "346292 and 360694 and 357566"}, {"measurement": "arsenite-induced stress granule quantification (G3BP1), Mean", "setting": "A549 cells; SAHA 5 uM", "result": 45.6514}, {"measurement": "arsenite-induced stress granule quantification (G3BP1), Median", "setting": "A549 cells; SAHA 5 uM", "result": 49.1176}, {"measurement": "arsenite-induced stress granule quantification (G3BP1), individual values", "setting": "A549 cells; SAHA 5 uM", "result": "49.2857 and 50.3 and 41.875 and 50.4286 and 49.1176 and 51.2222 and 60.7 and 38.0833 and 56.9 and 30 and 49.3333 and 45.8824 and 50.6667 and 31.4 and 46 and 38.6364 and 52.8182 and 41.7273 and 33"}, {"measurement": "arsenite-induced stress granule quantification (G3BP1), Mean", "setting": "A549 cells; SAHA 10 uM", "result": 35.2798}, {"measurement": "arsenite-induced stress granule quantification (G3BP1), Median", "setting": "A549 cells; SAHA 10 uM", "result": 36}, {"measurement": "arsenite-induced stress granule quantification (G3BP1), individual values", "setting": "A549 cells; SAHA 10 uM", "result": "44.5 and 23.5 and 22.5 and 18.5 and 15.6364 and 31 and 37.5882 and 55.1667 and 42.2 and 33.2 and 29.6923 and 41.5 and 52.75 and 25.3333 and 40.5 and 51.1667 and 36 and 30.8333 and 38.75"}, {"measurement": "effect on stress granule numbers per cell", "setting": "A549 cells; pre-incubation 6 h, then 1 mM arsenite 30 min", "result": "dose-dependent reduction of stress granule numbers per cell"}]}
